The compound `CCCC[C@H](NC(=O)[C@@H](NC(=O)OCc1ccccc1)c1ccccc1)C(=O)CSCc1ccco1` registered a melting point of 144 to 146 °C. In turn, `O=c1cc(Oc2cccc(OCc3ccccc3)c2)c2ccccc2[nH]1` had a melting point of 262 to 265 °C. With `O=C1CCC(N2Cc3cc(CNC(=O)Nc4cccc(Cl)c4)ccc3C2=O)C(=O)N1` (stereo not given), the melting point lay in the range of 215 to 217 °C.

In turn, `Cc1c(C(=O)Nc2ccc(N3CCC(N4CCOCC4)CC3)c(C#N)c2)cnn1-c1ccccn1` registered a melting point of 251 °C. For `COP(=O)(CC(=O)COc1cccc(Cl)c1)OC`, the melting point is 78 to 79 °C. As for `CCOC(=O)/C(=N\OCCN=[N+]=[N-])c1csc(N)n1`, the melting point fell in the range of 123 to 124 °C. For the compound `CCCc1c(OCC#CCCCC(=O)NCCCCc2cccnc2)ccc(C(C)=O)c1O`, the melting point lay within 77 to 80 °C.

The compound `Oc1c(C2(c3ccc4ccccc4c3O)c3ccccc3-c3ccccc32)ccc2ccccc12` had a melting point of 268 to 290 °C. `CC(C(=O)CCl)c1ccc(-c2ccccc2)c(F)c1` (stereo not given): the melting point fell in the range of 57 to 59 °C. Consider `O=C1CCCCC1c1ccc(F)cc1` (stereo not given), for which the melting point fell in the range of 56 to 59 °C. As to `N#Cc1cc(-c2ccc(C(F)(F)F)cc2)ccc1-n1cc(-c2cc(F)cc(F)c2)nn1`, the melting point fell in the range of 229 to 230 °C.

With `Cc1cn(-c2cc(Br)c(N)c(C(F)(F)F)c2)c(C)n1`, the melting point was determined as 149 °C. Compound `CCCOc1ccc(F)cc1C(=O)O` displayed a melting point of 76 to 78 °C. `CCc1nc(OC)c(NC(=O)N2CCN(c3cc(Cl)cc(Cl)c3)CC2)cc1C(=O)Nc1cc(CO)cc(Nc2c3ccccc3nc3ccccc23)c1`: the melting point lay within 210 to 212 °C. In turn, `CC12CCC(=O)C=C1CCC1C2=CCC2(C)C(=C(Cl)C(Cl)S(=O)c3ccccc3)CCC12` (stereo not given) returned a melting point of 133 to 134 °C.

The compound `CCCCCCCN(CC1(c2ccccc2)CCCC1)C(=O)Nc1c(C(C)C)cccc1C(C)C` displayed a melting point of 95 to 97 °C. For `COC(=O)C12Cc3cc(Cl)ccc3C1=NNCO2` (stereo not given), the melting point is 124 to 127 °C. To `COc1ccc2c(c1)Sc1ccc(F)cc1C(O)C2` (stereo not given) belongs 74 to 76 °C; to `CONC(=O)c1[nH]c(C)c(-c2nc3ccc(C(=O)c4ccccc4)cc3[nH]2)c1C`, 203 to 205 °C; to `COC(=O)c1cc2c(nc1C)C(CBr)CCCC2` (stereo not given), 66 to 67 °C. `CC(C)c1ccc(C2=C(c3ccc(S(C)(=O)=O)cc3)OC3(CCCC3)C2=O)cc1` yielded a melting point of 139 to 140 °C. With `CC(C)Cc1nn(C)c(=O)c2cn(Cc3ccncc3)cc12`, the melting point lay within 91 to 93 °C. For `CN(C)CCCNC(=O)c1ccc(/C=C/c2ccc3c(=O)[nH]ncc3c2)cc1`, the melting point was found to be 287 °C. `CCC(OC)c1oc(C)cc(=O)c1OCc1ccccc1` (stereo not given) yielded a melting point of 63 to 65 °C. For the compound `NS(=O)(=O)NC(=O)CNC(=O)NCCCCC1CCSS1` (stereo not given), the melting point was 143 to 145 °C. `C=CCN1CCc2cc(OC)c(O)c3c2C1Cc1cc(OC)c(OC)cc1-3` (single isomer, unassigned; (+)): the melting point was 85 to 93 °C. `COc1ccc(C2(O)CCN(Cc3ccccc3)CC2)cc1OC` came in with a melting point of 112 to 114 °C. `CC(C)(C)OCC1CN(c2ccc3cc(O)ccc3c2)C(=O)O1` (stereo not given): the melting point was in the range of 177 to 178 °C. To `Cc1oc(-c2ccc3ccccc3c2)nc1COc1ccc(CO)cc1` belongs 181 to 182 °C; to `CNC(=O)C(=NOC)c1ccccc1COc1ccc2c(c1)OCC2=NOC`, 143 to 145 °C; to `COC(=O)c1ccccc1NC(=O)CNc1ccccc1Br`, 89 to 91 °C.

In the case of `COc1cc(Nc2nccc(-c3cccc(NCCCO)c3)n2)cc(OC)c1OC`, the melting point lay in the range of 92 to 95 °C.

`OC1Cc2cc(I)ccc2Sc2ccccc21` (stereo not given) displayed a melting point of 131 to 133 °C. `Nc1nc(-c2c(-c3ccccc3)c3ccccc3[nH]c2=O)cs1`: the melting point was over 220 °C.

With `O=C1N=CNC(O)C1C(=O)Nc1ccccc1` (stereo not given), the melting point is 200 to 208 °C.

For the compound `CC(=O)N1CCC(CCC(=O)c2cc3c4c(c2)CC(=O)N4CCC3)CC1`, the melting point is 119 to 120 °C. Consider `COc1nc(C(F)(F)C(F)(F)F)cc(=O)n1-c1cc(C(=O)OC(C)C)c(Cl)cc1F`, for which the melting point lay in the range of 82 to 84 °C. `N#Cc1cccc(-c2ccccc2)n1`: the melting point fell in the range of 65.2 to 66.1 °C. As to `CCCCC(CCCc1cccnc1)CC(NS(=O)(=O)c1ccc(Cl)cc1)C(=O)O` (stereo not given), the melting point lay in the range of 113 to 114 °C. In turn, `CCC(=O)c1[nH]c2cc(Cl)ccc2c1NC(C)=O` yielded a melting point of over 270 °C. In turn, `COc1ccc(-c2nnn(-c3ccc(C(F)(F)F)cc3F)c2C)cc1` gave a melting point of 154 to 155 °C. Consider `COC(=O)C(Oc1ccc2c(c1)CCC2)c1ccc(OCCCOc2ccc(Cl)cc2)cc1` (stereo not given), for which the melting point lay in the range of 60 to 62 °C.

`COc1cc2ncc(O[C@H]3CC[C@H](C(=O)O)CC3)nc2cc1OC` displayed a melting point of 90 to 93 °C. As for `CCCCCCCC1=CC(=O)NC1(O)CN` (stereo not given), the melting point is 176 °C.

Compound `CCOC(=O)c1cn(-c2ccc(F)cc2F)c2c(F)c(F)c(F)c(C)c2c1=O` registered a melting point of 152 to 154 °C.

Compound `Nc1c(Cl)ccc(Br)c1F` displayed a melting point of 61 to 62 °C. `c1ccc(C(=C2CCN(CCN3CCNCC3)CC2)c2ccccc2)cc1` registered a melting point of 73 to 75 °C. The compound `NC(=O)CNC(=O)c1cncc(-c2cccc3cc(Cc4cccc(C(F)(F)F)c4)sc23)c1` returned a melting point of 122 to 123 °C. Compound `Cc1ccn(-c2ccc(C=O)cc2)n1` gave a melting point of 96 to 98 °C. `CC(Cc1c[nH]c2ccc(N)cc12)[N+](=O)[O-]` (stereo not given) came in with a melting point of 120 to 122 °C. Consider `Cn1ncc2[nH]c3ccc(-c4cccc(O)c4)cc3c(=O)c21`, for which the melting point is over 250 °C.

`C[Si](C)(C)C#Cc1cc2ccc(-n3nc4ccc5ccccc5c4n3)cc2oc1=O` displayed a melting point of 250 to 252 °C. As for `COC(=O)C(N)Cc1ccc(OCCN(C)c2nc3ccccc3o2)cc1` (stereo not given), the melting point was 95 to 96 °C.

With `CC(=O)Oc1ccc(C(=O)OCC[C@H](C)COC(=O)c2ccc(OC(C)=O)cc2)cc1`, the melting point was determined as 46 °C.

`COc1nc2ccccc2nc1NC(=S)N1CCN(c2ccc(C(C)=O)cc2)CC1` registered a melting point of 235 to 237 °C. The compound `CN(C)CCOc1cc(O)cc(/C=C/c2ccc(O)cc2)c1` returned a melting point of 92 to 94 °C. Compound `Oc1ccc(-c2cc3ccccc3[nH]2)cc1` registered a melting point of 224 to 229 °C. In turn, `CC(C)CCN1CNC(=O)C12CCN(Cc1ccccc1)CC2` came in with a melting point of 139 to 140 °C. The same measure for `CCCCCCc1cc(-c2nc(-c3cc(CCCCCC)c(O)cc3O)nc(-c3cc(CCCCCC)c(O)cc3O)n2)c(O)cc1O`: over 250 °C; for `O=C(Cc1cc2ccccc2[nH]1)Nc1ccc(-n2nc(C(F)(F)F)cc2C(F)(F)F)cc1`: 176 to 178 °C. In turn, `OCCNC(c1ccccc1)c1ccccc1` registered a melting point of 69 to 70 °C.

The compound `NCc1ccccc1CN` yielded a melting point of over 250 °C.

Compound `CC(C)(C)c1cc(C2=C(c3cc(C(C)(C)C)c(O)c(C(C)(C)C)c3)C2=C(C#N)C#N)cc(C(C)(C)C)c1O` registered a melting point of 280 to 281 °C. To `O=C(Nc1cccc(Cl)c1C(=O)O)c1cccc(F)c1` belongs 216 to 219 °C; to `O=C(O)c1c[nH]c(Sc2cc(Cl)cc(Cl)c2)c1`, 169 to 172 °C. `CCCCCCCOc1ccc(-c2ccc(N=Nc3ccc(N=Nc4ccc(N(C)C)cc4)cc3)cc2)cc1` registered a melting point of 201 to 203 °C. The same measure for `COC(=S)c1nc(-c2ccccc2)c(N)nc1N`: 210 °C; for `NS(=O)(=O)c1ccc(C2=C(c3ccc(F)c(F)c3)CCC2)cc1`: 147 to 148 °C; for `CCN1C(=O)Cc2cc(C(C)=O)ccc21`: 141 to 145 °C. The same measure for `CCNC(=O)C(C)(C)N=NC(C)(C)C(=O)NCC`: 98 °C. As to `COc1ccc(C2=CC(=Nc3c(C)cc(C)cc3C)N(C)CN2C(C)=O)cc1OC`, the melting point was in the range of 173 to 175 °C. Turning to `O=C(OCc1ccccc1)N1CCc2ccccc2C12CCC(C(=O)O)(C(=O)O)CC2`, the melting point was 199 to 200 °C. To `C=C(C)C(=O)NCC(=O)NCC(=O)O` belongs 200 to 201 °C; to `CC#CCC(CC#CC)(C(=O)O)S(=O)(=O)c1ccc(N2CCC(NC[C@H](O)c3ccc(O)c(NS(C)(=O)=O)c3)CC2)cc1`, 175 to 177 °C. As for `COCCOCCOc1ccc(C2=N[C@@](C)(C(=O)O)CS2)c(O)c1`, the melting point is 82 to 83 °C. As for `Cc1cc(C)cc(Sc2c(CC#N)nc(C)n2C)c1`, the melting point lay within 81 to 82 °C. Regarding `Cc1cccc(NC(=O)NC2N=C(CC(C)C)c3cccc(C)c3N(CC(=O)N3CCCCCCC3)C2=O)c1` (stereo not given), the melting point was in the range of 132 to 133 °C.

On to `Nc1cc(OCCC2CCCCC2)nc(N)n1`, for which the melting point is 142 °C.

Consider `COc1ccc(-c2c(/C=C\C(=O)O)cnn2C)cc1`, for which the melting point lay within 205 to 206 °C. Compound `C=COCCOc1ccc(C2(c3ccc(OCCOC=C)cc3)CCC(c3ccc(OCCOC=C)cc3)(c3ccc(OCCOC=C)cc3)CC2)cc1` showed a melting point of 138 to 139 °C. As to `NNC1NS(=O)(=O)c2ccccc21` (stereo not given), the melting point came to 249 °C. The same measure for `Cc1cc(-c2nncc3c(-c4ccco4)c(OCc4ncnn4C)nn23)no1`: 226 to 228 °C. As for `O=C(c1ccccc1)c1ccncc1Cl`, the melting point lay within 49 to 51 °C. The same measure for `O=c1[nH]c2cc(Cl)cc(OCCNCc3ccsc3)c2[nH]1`: over 250 °C; for `Cc1nc2ccc(C(=O)NS(=O)(=O)c3ccccc3)nc2n1Cc1ccc(C(=O)O)cc1Cl`: 155 to 160 °C.

`CC(=O)NC(n1cncn1)C(Cl)(Cl)CCl` (stereo not given) came in with a melting point of 135 °C. As to `CC1(C(=O)C(C(O)C(Cl)(Cl)Cl)n2cncn2)CC1` (stereo not given), the melting point is 216 to 218 °C. To `COC(=O)c1cc(I)ccc1N=C=S` belongs 60 to 62 °C. In turn, `CC12CCC(C(=Cc3ccc(O)cc3)C1=O)C2(C)C` (stereo not given) showed a melting point of 220 °C. `Cc1nc(Cn2cnc3c2c(=O)[nH]c(=O)n3C)no1` registered a melting point of 262 to 264 °C.

One may read the melting point as the temperature, or range, at which the solid turns liquid.

Values taken from a melting point compilation (Tetko et al.; mined from patent text by program, amines drawn as free bases though some values may be those of a salt).
